The text below walks through data of US5962456A, “N-acylpiperazine derivative, anti-ulcer drug, and antibacterial drug” (Shiseido Co., Ltd., priority 1996, dated 1999).

Some results are limits rather than exact numbers.

Series [1] in a line: MTT: Cell Damaging and Protecting Effect Test. The class given is cell-based, rabbit (male Japanese White). Particulars: rabbit, gastric corpus mucosa cells, final concentration 10^-4 M, smaller value is better, read-out: MTT cell damaging rate. From the text: (§1) MTT: Cell Damaging and Protecting Effect Test
(§2) It is confirmed that there is no toxicity in cell level. Those having a toxicity in cell level are inappropriate as an anti-ulcer drug.
(§3) A male Japanese White rabbit (2.5 to 3 kg) was anesthetized to death by Nembutal™ and, immediately thereafter, its stomach was removed. The greater curvature of the stomach was incised so as to remove the stomach contents therefrom. After the mucosal surface was washed with HBSS (Hanks' Balanced Salt Solution), the stomach in ice-cooled HBSS was transferred to a laboratory. Then, after the pyloric antrum was removed, the gastric corpus mucosa was separated by a spatula and then minced into 2 to 3 mm^3 pieces in BME (Basal Medium Eagle). Thereafter, these pieces were shaken at 120 to 130 cycles/minute for 15 minutes at 37° C. in BME 60 ml containing 280 U/ml of dispase and 30 to 50 U/ml of collagenase. Here, the concentration of collagenase was appropriately changed for each lot in view of the state of cells. The pieces were washed twice with EBSS (Earle's Balanced Salt Solution) containing 1 mM of EDTA and then shaken in MEM (Minimum Essential Medium) containing 1 mM of EDTA at 37° C. for 5 minutes. Subsequently, they were shaken in the dispase and collagenase having the same concentrations as those mentioned above for 15 minutes so as to remove the supernatant and then further shaken at 37° C. for 50 to 60 minutes at 120 to 130 cycles/minute. Then, after being washed twice with HBSS, Ham F12 containing 2% of Ultrocer G™ was used to attain the concentration of 1×10^6 cells/ml. Thus formed suspension was dispensed in each well of a 96-well plate by 200 μl. The plate was incubated in the atmosphere composed of 5% CO2 and 95% air at 37° C. for three days so as to attain a confluent state and then subjected to MTT assay.
(§4) The sample compound was dissolved in DMSO so as to attain a concentration of 10^-2 M and then diluted with HBSS containing 2% of Ultrocer G™ so as to attain a final concentration of 10^-4 M. To each group, which 8 wells were used for, 10 μl of MTT reagent was added immediately after 100 μl of the medium in each well was exchanged for same volume of the resulting solution of the sample compound. After being incubated in an atmosphere composed of 5% CO2 and 95% air at 37° C. for 4 hours, thus formed solution was centrifuged and then its supernatant was discarded. Subsequently, 100 μl of 100% ethanol was added to the residue so as to dissolve MTT formazan. Then, the absorbance (OD: 570 to 630) was measured by a microplate reader. This method utilizes a phenomenon in which MTT is changed to MTT formazan only by mitochondria of living cells so as to change color.
(§5) The cell damaging or cell protecting effect of the sample compound at the final concentration of 10^-4 M was expressed as cell damaging rate (%) as follows:
(§6) cell damaging rate (%)=(1-(absorbance in sample group/absorbance in control group))×100
(§7) Accordingly, the smaller rate value is better in the cell damage.

Series [2] has as its system Helicobacter pyroli. The series is described as follows: AHP: Antibacterial Activity Test Against Helicobacter pyroli (agar dilution). The class given is cell-based, HP NCTC 11637. Particulars: for AHP antibacterial activity, colony number relative to control plate: MIC 100 μg/ml or more, plate with 250 mM solution of the sample compound; for MIC: Helicobacter, NCTC11637, 168 h, HP NCTC 11637, agar dilution, 7 days, read-out: AHP minimum inhibitory concentration (MIC). As for the experimental part: AHP: Antibacterial Activity Test Against Helicobacter pyroli i) Meaning The minimum inhibitory concentration (MIC) against Helicobacter pyroli (microaerophilic gram-negative bacterium which is supposed to deeply involve in pathogenesis, relapse, and recrudescence of ulcer, referred to as "HP" in the following) is measured so as to find out compounds which have antimicrobial activity against Helicobacter pyroli. ii) Method MICs were determined by the agar dilution method. The stock culture (-80° C.) of HP NCTC 11637 was thawed and cultured on tripticase soy agar supplemented with 5% sheep blood at 37° C. in an atmosphere of 5% O2, 10% CO2, and 85% N2. Grown colonies were transferred to the same plate and precultured for 3 days under the same condition. […] 10 μl of the bacterial suspension for inoculation (about 10^3 cfu) was inoculated on this plate and cultured for 7 days under the same condition as that of preculture. […] As the result of the comparison of these plates, when the number of the colony on the plate containing the sample compound was less than 90% with respect to that on the control plate, it was represented by "+". Contrary to this, when there was 90% or more, it was represented by "-".
(In general: Agar dilution tests growth on a series of plates holding different concentrations.)

For series [3], the system named is stress ulcer. The series is described as follows: WIS: Restraint and Water Immersion Stress-Induced Ulcer Inhibition Test. The class given is in vivo, rat (male Crj:SD or Slc:SD). Particulars: 100 mg/kg oral, rats, 7 hours restraint and water immersion (21° C.). As for the experimental part:
WIS: Restraint and Water Immersion Stress-Induced Ulcer Inhibition Test
The degree of inhibition of the stress ulcer formation is tested.
Male Crj:SD or Slc:SD rats (6 to 7-week-old) were fasted overnight, but allowed free access to water. Each group has 5 to 8 of these rats. […] To a control group, the vehicle was administered. 10 minutes later, the rats were placed in a stress cage and immersed to the level of xipfoid process in a water bath (21° C.) for 7 hours. At the end of the stress, the rats were sacrificed by inhalation of ether or carbon dioxide. Then, the stomach of each was removed, inflated by injecting 10 ml of 5% formalin neutral buffer solution, and immersed in 1% formalin neutral buffer solution for 30 minutes or more to be fixed. The stomach was incised along the greater curvature and then the length of each erosion in the glandular portion was determined under dissecting microscope. The sum of the length of erosions per stomach was defined as ulcer index (UI).
The effect obtained when 100 mg/kg of the sample compound had been administered was expressed as ulcer formation inhibitory rate (%) as follows:
ulcer formation inhibitory rate (%)=(1-(UI in sample group/UI in control group))×100

The subject of series [4] is isolated gastric fundic gland. As to the kind of experiment: CAP: Acid Secretion Inhibition Test In Vitro ([14C]-aminopyrine uptake). As to conditions: final concentration 10^-5 M, histamine 10^-5 M, rabbit gastric fundic glands; for inhibition at 10 µM: Oryctolagus cuniculus, read-out: CAP acid secretion inhibitory rate. The class given is cell-based, rabbit (male Japanese White). As for the experimental part:
CAP: Acid Secretion Inhibition Test In Vitro
The acid secretion inhibitory activity in a cell level is studied. It can also be used for studying the mechanism of the effect. […]
ii-a) Preparation of Isolated Gastric Fundus Gland Suspension
First, an isolated gastric fundic gland sample was prepared. Namely, a male Japanese White rabbit (2.5 to 3 kg) was anesthetized to death with Nembutal™ and then the abdomen was incised. Immediately thereafter, the stomach was removed and, after its pyloric and cardiac antrum were severed, incised along its greater curvature into two sheets. The gastric contents adhering to the mucosal surface was washed out with ice-cooled PBS (-) and then carefully washed therein. The gastric wall was spread on a cork board with its mucosal surface facing up and the feed and mucus thereon were completely removed with sterile gauze. The mucosa was separated therefrom by a spatula and then collected in ice-cooled PBS (-). After being washed twice with PBS (-), the mucosa was minced into 2-3 mm^3 pieces by scissors. These pieces were further washed twice with a nutrient solution. […] Into 70 ml of the nutrient solution containing 1 mg/ml of collagenase, minced mucosal pieces were dispersed and intensely stirred in a conical flask with a stirrer at 37° C. for 40 to 60 minutes. During this period, 100% O2 was sprayed on the nutrient solution surface and the pH was appropriately measured such that it was immediately adjusted to pH 7.4, when the value was therebelow, with a base. The nutrient solution was added to the reaction solution so as to attain the total amount of about 200 ml. After being filtered through a mesh, the suspension was divisionally introduced into 50 ml centrifuge tubes and left for 15 minutes such that gastric fundic gland was deposited. The supernatant was repeatedly removed by an aspirator, dispersed in the nutrient solution, and then left such that the gastric fundic gland was washed three times. At this time, without using a pipette, the suspension was alternately introduced into two centrifuge tubes so as to effect dispersion. The number of cells was counted under microscope and adjusted to 1.6×10^6 cells/ml. […]
ii-b) [^14 C]-aminopyrine Uptake Test
Then, [^14 C]-aminopyrine uptake test was performed. After an Eppendorf tube was weighed, 10 μl (final concentration: 10^-5 M) of histamine dissolved in the above-mentioned nutrient solution, 10 μl (final concentration: 10^-5 M) of the test compound dissolved in DMSO, and 10 μl (final concentration: 0.05 μCi/ml) of [^14 C]-aminopyrine diluted with the nutrient solution were introduced therein and then 970 μl of the isolated gastric fundic gland suspension prepared above was added thereto. […] After being centrifuged for 30 minutes, 200 μl of its supernatant was collected into a mini-vial, while the rest was removed by an aspirator. The gland pellet was completely dried as the tube with its lid being opened was kept for one night in a drying oven at 80° C. and then the lid was closed and the weight was determined at room temperature. Then 100 μl of 1N KOH was added thereto and the tube with its lid being closed was treated at 60° C. for 1 to 2 hours so as to dissolve the pellet. Then, the contents thereof were transferred to a mini-vial. Into the mini-vial containing the supernatant or gland pellet, 4 ml of Atomlite™ was added and then the radioactivity was measured by a liquid scintillation counter. Here, after the radioactivity of the gland pellet was corrected by using a sample in which 20 mM of NaSCN was added so as to cancel the hydrogen ion concentration gradient, the integration ratio of aminopyrine specifically trapped by the gland pellet was calculated. This experiment was performed in duplicate. […]
ii-c) Calculation of the Accumulation Rate of Aminopyrine
Here, its principle will be briefly explained. In the isolated gastric fundic gland, acid is accumulated in a space between its secretory tubule and intraglandular cavity.

The subject of series [5] is gastric corpus mucosa cells. The series is described as follows: MTT: Cell Damaging and Protecting Effect Test. It is filed as cell-based, rabbit (male Japanese White). As to conditions: final concentration 10^-4 M, 4 hours; smaller value is better; 100 µM.
From the text: as §1, §2, §3, §4, §5, §6, §7

`CC(C)=CCC/C(C)=C/COc1ccc(C(=O)N2CCN(Cc3ccc4c(c3)OCO4)CC2)cc1` [Example 4, 1-(4-geranyloxy)benzoyl-4-piperonylpiperazine]: the cytotoxicity at 4 h, 100 µM in series [1] is -29%. Besides, the “AHP antibacterial activity, colony number relative to control plate” value in series [2] is recorded as “+ (the number of the colony on the plate containing the sample compound was less than 90% with respect to that on the control plate)”. The “WIS ulcer formation inhibitory rate” value in series [3] was determined as 43%.
On to `CC(C)Cc1cc(C(=O)N2CCN(Cc3ccccc3)CC2)ccc1OCc1ccccc1` [Example 9, 1-(4-benzyloxy-3-isobutyl)benzoyl-4-benzylpiperazine], for which the cytotoxicity at 4 h, 100 µM in series [1] was -32%. For the same compound, the “AHP antibacterial activity, colony number relative to control plate” value in series [2] was “+ (the number of the colony on the plate containing the sample compound was less than 90% with respect to that on the control plate)”. Further, in series [4], the inhibition at 10 µM worked out at 94.6%.
Taken in the same sequence, the figures for `CC(C)Cc1ccc(C(=O)N2CCN(C(c3ccccc3)c3ccccc3)CC2)cc1O` [Example 12, 1-diphenylmethyl-4-(3-hydroxy-4-isobutyl)benzoylpiperazine] were -12%, “+ (the number of the colony on the plate containing the sample compound was less than 90% with respect to that on the control plate)” and 41.9%.
Take `CC(C)=CCC/C(C)=C/COc1ccc(C(=O)N2CCN(CCNC(=O)c3ccc4c(c3)OCO4)CC2)cc1CC(C)C` [Example 2, 1-(4-geranyloxy-3-isobutyl)benzoyl-4-[2-(piperonyloylamino)ethyl]piperazin]: the “MTT cell damaging rate” value in series [5] is 22%. In series [4], the “CAP acid secretion inhibitory rate” value came to 99.4%.
Turning to `CC(C)=CCOc1cc(C(=O)N2CCN(Cc3ccccc3)CC2)cc(OCC=C(C)C)c1OCC=C(C)C` [Example 6, 1-benzyl-4-(3,4,5-triprenyloxy)benzoylpiperazine], the cytotoxicity at 4 h, 100 µM in series [1] was -16%. The inhibition at 10 µM in series [4] amounted to 99.5%.
Taken in the same sequence, the figures for `CC(C)=CCC/C(C)=C/COc1ccc(C(=O)N2CCN(CCOC(=O)c3ccncc3)CC2)cc1` [Example 3, 1-(4-geranyloxy)benzoyl-4-(2-isonicotinoyloxyethyl)piperazine] were -24% and 101%.
With `CC(C)Cc1cc(C(=O)N2CCN(C(=O)NC(C)C)CC2)ccc1OCc1ccc(F)cc1` [Example 8, 1-[4-(4-fluorobenzyloxy)-3-isobutyl]benzoyl-4-(N-isopropylcarbamoyl)piperazine], in series [1], the cytotoxicity at 4 h, 100 µM is -93%. In addition, in series [2], the MIC was less than 3.13 µg/mL. The inhibition at 10 µM in series [4] was found to be 36.9%.
Taken in the same sequence, the figures for `CC(C)Cc1cccc(C(=O)N2CCN(Cc3ccc4c(c3)OCO4)CC2)c1O` [Example 11] were 5%, less than 3.13 µg/mL and 93.1%.
Regarding `COc1cc(C(=O)N2CCN(Cc3ccccc3)CC2)cc(OC/C=C(\C)CCC=C(C)C)c1OC` [Example 7, 1-benzyl-4-(3,4-dimethoxy-5-geranyloxy)benzoylpiperazine], the cytotoxicity at 4 h, 100 µM in series [1] was -44%. Besides, the inhibition at 10 µM in series [4] is 99.6%.
With `COc1cc(C(=O)N2CCN(Cc3ccccc3)CC2)cc(OC)c1OC/C=C(\C)CCC=C(C)C` [Example 5, 1-benzyl-4-(3,5-dimethoxy-4-geranyloxy)benzoylpiperazine], the cytotoxicity at 4 h, 100 µM in series [1] is -50%. Besides, the “AHP antibacterial activity, colony number relative to control plate” value in series [2] was “+ (the number of the colony on the plate containing the sample compound was less than 90% with respect to that on the control plate)”. The inhibition at 10 µM in series [4] came out at 99.2%.
